In patent US11400082B2, “Methods of treating elevated plasma cholesterol” (Montréal Heart Institute, priority 2017, dated 2022):
“And” between values parts separate entries of the source, which are not always exact repeats. Identical values can stand only once. Like-named read-outs stand apart in the source and are kept apart here.

Key:
[1] = test system: LDLR protein; experiment: Western blot analysis, relative quantification of LDLR protein levels; assay type: cell-based, human; details: overnight, hepatoma cells (HepG2, FIG. 13), normalized to actin, vehicle (DMSO) = 1
Procedure: (§1) For sterol-regulated conditions, HepG2 cells were incubated in 5% LPDS, 50 μM mevastatin, and 50 μM mevalonolactone in the absence (-sterols) or presence of 1 μg/ml 25-hydroxycholesterol and 10 μg/ml cholesterol (+sterols). For inhibitor treatments HepG2 cells were treated with DMSO or 10 μM compounds 2 in combination with U0126 (25 μM, catalog no. 9903, Cell Signaling Technology), Cycloheximide (CHX; 20 μg/ml, catalog no. C7698, Sigma-Aldrich), PD153035 (20 μM, catalog no. 14879, Cayman Chemical), bisindolylmaleimide I (BIM; 10 μM, catalog no. 13298, Cayman Chemical), H-89 (10 μM, catalog no. 10010556, Cayman Chemical), Dorsomorphin (5 μM, catalog no. 11967, Cayman Chemical) or 5-Azacytidine (10 μM, catalog no. A2385, Sigma-Aldrich).
Treated cells from Example 28 were washed three times in phosphate-buffered saline (PBS) and lysed in radioimmune precipitation assay buffer (50 mM Tris/HCl, pH 8.0, 1% (v/v) Nonidet P-40, 0.5% sodium deoxycholate, 150 mM NaCl, and 0.1% (v/v) SDS) supplemented with a complete protease inhibitor mixture (catalog no. 11 697 498 001, Roche Applied Science). Proteins were separated by 8% SDS polyacrylamide gel electrophoresis, blotted on nitrocellulose membranes (Bio-Rad), and blocked for 1 h in Tris-buffered saline-Tween 20 (TBS-T; 50 mM Tris-HCl, pH 7.5, 150 mM NaCl, 0.1% Tween 20) containing 5% nonfat dry milk. Membranes were then incubated overnight in TBS-T supplemented with 1% nonfat milk and the indicated antibodies; goat anti-human LDLR (1:1000; catalog no. AF2148, R&D Systems), rabbit anti-actin (1:5000; catalog no. A2066, Sigma-Aldrich). Appropriate HRP-conjugated secondary antibodies (1:10,000; GE healthcare) were used for detection using the Western Lightning Ultra chemiluminescence kit (catalog no. NEI112001EA, PerkinElmer Life Sciences) and BioFlex EC Films (catalog no. CLEC810, InterScience). Unsaturated films were numerized using the high resolution CanoScan 9000F scanner and corresponding bands were quantified using the ImageJ software (NIH). Relative quantification of LDLR protein levels were normalized to that of actin and compared to vehicle (DMSO) herein determined as 1.

[2] = test system: LDLR protein; assay type: cell-based, human
Procedure: as §1
Treated cells from Example 28 were washed three times in phosphate-buffered saline (PBS) and lysed in radioimmune precipitation assay buffer (50 mM Tris/HCl, pH 8.0, 1% (v/v) Nonidet P-40, 0.5% sodium deoxycholate, 150 mM NaCl, and 0.1% (v/v) SDS) supplemented with a complete protease inhibitor mixture (catalog no. 11 697 498 001, Roche Applied Science). […] Unsaturated films were numerized using the high resolution CanoScan 9000F scanner and corresponding bands were quantified using the ImageJ software (NIH). Relative quantification of LDLR protein levels were normalized to that of actin and compared to vehicle (DMSO) herein determined as 1.

[3] = Cell viability assay (MTT); assay type: cell-based; details: human; overnight incubation, viability relative to DMSO
Procedure: Following incubation, media was replaced and cells incubated for 4 h with 100 μL of phenol red-free DMEM containing 0.5 mg/mL of MTT (3-[4,5-dimethylthiazol-2-yl]-2,5-diphenyltetrazolium bromide; thiazolyl blue; catalog no. M5655, Sigma-Aldrich). Afterwards, media was removed and converted dye solubilized with 100 μL acidic isopropanol (0.06 N) and absorbance measured at a wavelength of 570 nm with background subtraction at 650 nm. Arbitrary units of cell viability of a given example were determined relative to equal volume of DMSO (vehicle) for each concentration used.

| Compound | LDLR Fold Change 10 nM [1] | LDLR Fold Change 10 μM [1] | further results |
| --- | --- | --- | --- |
| COc1ccc(COCc2cnc(C(=O)O)c(O)c2C)cc1 [Compound 7, 5-(4-methoxy-benzyloxymethyl)-3-hydroxy-4-methyl-pyridine-2-carboxylic acid] | 1.7 | 1.9 and 2-3 | – |
| C[C@@H]1C[C@@H]([C@H](O)CC2CC(=O)NC(=O)C2)C(=O)[C@@H](C)C1 [CHX, Cycloheximide] | – | – | effect of combined inhibitor on increase of LDLR by Compound 2 ([2]; HepG2 cells, 10 μM Compound 2 in combination with inhibitor (U0126 25 μM, CHX 20 μg/ml), FIG. 19): block increase of LDLR by Compound 2 |
| O=C(NO)c1ncc(CCc2ccc(F)cc2)c(CO)c1O [Compound 6, 5-[2-(4-fluoro-phenyl)-ethyl]-3-hydroxy-4-hydroxymethyl-pyridine-2-carboxylic acid hydroxamide] | 1.5 | 2.3 | CC50 [3]: 39 µM |
| Cc1ncc(COc2ccc(F)cc2)c2c1OC(C)(C)OC2 [Compound 26, 5-((4-fluorophenoxy)methyl)-2,2-dimethyl-4H-[1,3]dioxino[4,5-c]picoline] | 1 | 1.5 | – |
| O=C(NO)c1ncc(CNc2ccc(F)cc2)c(CO)c1O [Compound 1, 5-[(4-fluoro-phenylamino)-methyl]-3-hydroxy-4-hydroxymethyl-pyridine-2-carboxylic acid hydroxyamide] | – | 6.9 | CC50 [3]: 120 µM |
| COC(=O)c1ncc(COCc2ccc(OC)cc2)c2c1OC(C)(C)OC2 [Compound 10, methyl 5-((4-methoxybenzyloxy)methyl)-2,2-dimethyl-4H-[1,3] dioxino[4,5-c]pyridine-8-carboxylate] | 1.7 | 1.2 | – |
| N#CC(=C(/N)Sc1ccccc1N)/C(C#N)=C(\N)Sc1ccccc1N [Compound U0126, U0126] | – | – | effect of combined inhibitor on increase of LDLR by Compound 2 [2]: block increase of LDLR by Compound 2 |
| Cc1ncc(COc2ccc(F)cc2)c(CO)c1O [Compound 27, 5-((4-fluorophenoxy)methyl)-3-hydroxy-4-(hydroxymethyl)picoline] | 0.6 | 1.2 | – |
| O=C(NCc1ccc(F)c(Cl)c1)c1cnc(C(=O)NO)c(O)c1CO [Compound 4, N^5-(3-chloro-4-fluorobenzyl)-N^2,3-dihydroxy-4-(hydroxymethyl)pyridine-2,5-dicarboxamide] | – | 2.7 | – |
| COC(=O)c1ncc(C(=O)NCc2ccc(F)c(Cl)c2)c2c1OC(C)(C)OC2 [Compound 25, 2,2-dimethyl-4H-[1,3]dioxino[4,5-c]pyridine-5,8-dicarboxylic acid 5-(3-chloro-4-fluoro-benzylamide)-8-(methyl ester)] | – | 1.9 | – |
| O=C(NO)c1ncc(COc2ccc(F)c(Cl)c2)c(CO)c1O [Compound 3, 5-(3-chloro-4-fluoro-phenoxymethyl)-3-hydroxy-4-hydroxymethyl-pyridine-2-carboxylic acid hydroxyamide] | – | 5.6 | CC50 [3]: 11 µM |
| CC1(C)OCc2c(CNCc3ccc(F)c(Cl)c3)cnc(C(=O)NO)c2O1.Cl [Compound 5, 5-{(1-3-chloro-4-fluoro-phenyl)aminomethyl} 2,2-dimethyl-4H-[1,3]dioxino[4,5-c]pyridine-8-carboxylic acid hydroxamide] | – | 2.4 | – |
| COC(=O)c1ncc(COCc2ccc(OC)cc2)c(C)c1O [Compound 8, 5-(4-methoxy-benzyloxymethyl)-3-hydroxy-4-methyl-pyridine-2-carboxylic acid methyl ester] | 1.7 | 1.7 | – |
| COc1c(C(=O)NO)ncc(C(=O)NCc2ccc(F)cc2)c1CO [Compound 19, 4-hydroxymethyl-3-methoxy-pyridine-2,5-dicarboxylic acid 5-(4-fluoro-benzylamide) 2-hydroxyamide] | – | – | CC50 [3]: 6.6 µM |
| COc1ccc(COCc2cnc(C)c3c2COC(C)(C)O3)cc1 [Compound 9, 5-((4-methoxybenzyloxy)methyl)-2,2,8-trimethyl-4H-[1,3]dioxino[4,5-c]pyridine] | – | 1.4 | – |
